According to article PMC9143562, “Hydrophilic CO-Releasing Material of PEGlyated Ruthenium Carbonyl Complex” (Materials, 2022):
One block for each compound: values may come before it.

Key:
[1] = logP by flask-shaking method (n-octanol/water, UV-vis); format: physicochemical; settings: for logP: oil-water partition coefficient, n-octanol/water, by UV-vis
Experimental: To identify the structural features of CO-RMs that govern the CO releasing behaviour, the CO release kinetics of 4–15 were correlated to the corresponding M-CO band and lipophilicity in Table 2. Firstly, the oil-water partition coefficient logP values of complexes were measured by the “flask-shaking” method with n-octanol and water, respectively. […] The water-solubility of these sawhorse ruthenium complexes mainly depend on both the axial glycol amino esters and bridging carboxylate, respectively. […]
4. Water-solubility Measured by the ﬂask - shaking method
The lipophilicity of complexes was measured by the ﬂask- shaking method where n-octanol and ultrapure water were used as the organic and aqueous phase respectively. First, make the pre saturated of oil-water two phase. Then the tested complex was dissolved in the isolated organic phase at a concentration of 1mg/mL, take 2 mL of liquld and 8mL aqueous phase was joined, the mixture was swirled for 12h at room temperature. The solution was then centrifuged, and the amounts of complex in organic layers were determined by UV-vis. Drawing standard curve and determination of oil-water partition coefficient. […]
5.4 UV-vis spectra of Lipophilicity (log Po/w)
Table S3. Stand curve measurement and calculation of Log P
Entry Standard curve equation Correlation coefficient(R2) […]

[2] = system: myoglobin (lyophilised horse heart); assay: Photo-activated CO release, myoglobin assay; settings: CO release half-life, 60 µM CO-RM, LED-UV 365 nm, PBS pH 7.4
Experimental: The CO release activity of each CO-RM […] was measured with the “golden standard” of myoglobin assay. Firstly, sodium dithionite was added to reduce myoglobin to deoxy-myoglobin (deoxyMb) in PBS (pH = 7.4) at 37.8 °C. A stock solution of CO-RM was added and then activated by LED-UV radiation at 365 nm, releasing CO […]. The change of deoxyMb to carbonmonoxy-myoglobin (MbCO) was monitored by UV-vis spectroscopy. […] The half-lives of CO release rate of 4 at 60 µM is 166 s, 40 µM is 172 s, and 20 µM is 267 s. […]
3. CO-Release Measured by Standard Myoglobin Assay
The release of CO from the metal carbonyl compounds was studied by measuring the conversion of deoxy-myoglobin (deoxy-Mb) to carboxy-myoglobin (Mb-CO). The amount of Mb-CO formed was quantified by measuring the absorbance at 540 nm. […] A 2 mL quantity of this was measured to obtain a deoxy-Mb spectrum and then bubbled with CO to get a Mb-CO spectrum. […] The concentration of myoglobin in the stock solution was calculated from the maximal absorption peak of the Mb-CO solution at 540 nm (Equation 1).
Equation 1. Equation for calculating total myoglobin concentration in a saturated solution of Mb-CO; ε = extinction coefficient of Mb-CO=15.4 mM-1cm-1, OD540 = absorbance of Mb-CO solution […]
Intermediate concentrations of Mb-CO are calculated from the OD540. […] The new extinction coefficient was calculated (Equation 2). […]

[3] = human plasma; cited from earlier work
[4] = system: acute hepatic ischemia-reperfusion injury; parameters: method as in PMID 20444253, PMID 21270767; settings: rats; serum AST/ALT, liver histology score; cited from earlier work
[5] = cited from earlier work

Coctanol ([1]; concentration in n-octanol phase, UV-vis): 0.9201 mmol/L | Cwater ([1]; concentration in water phase): 0.05055 mmol/L | logP [1]: 1.26 | t1/2, 60 µM [2]: 16.1 min
Compound: [Ru2(CO)4(µ2-ŋ2-O2C-p-ClC6H5)2 (ŋ1-NH2CH2C(=O)OCH2CH2OCH3)2] [CO-RM 13]

Compound: NCC(=O)O.[C-]#[O+].[C-]#[O+].[C-]#[O+].[Cl][Ru] [CO-RM-03, [Ru(CO)3Cl(glycinate)]]
half-life of CO release [3]: 3.6 min

Compound: [C-]#[O+].[C-]#[O+].[C-]#[O+].[C-]#[O+].[C-]#[O+].[C-]#[O+].[Cl][Ru][Cl].[Cl][Ru][Cl] [CO-RM-02, [Ru(CO)3Cl2]2]
effect on acute hepatic ischemia-reperfusion injury [4]: attenuated acute hepatic ischemia-reperfusion injury in rats | solubility in aqueous systems [5]: poor solubility

logP [1]: too hydrophobic to be evaluated
Compound: [Ru2(CO)4(µ2-ŋ2-O2C-C14H9)2 (ŋ1-NH2CH2C(=O)OCH2CH2OCH3)2] [CO-RM 15]
